PubChem BioAssay (NCI)
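In this assay, cells in 96-well plates receive the compound at five concentrations for 48 hours. Endpoints are linearly interpolated between the surrounding concentrations. TGI: concentration producing complete growth inhibition.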

Legend:
Assay in all cases: NCI tumour cell line growth inhibition, 48 h
COLO 205 colon = tested on: COLO 205 colon
MDA-MB-231 breast = tested on: MDA-MB-231 breast
SNB-19 CNS = tested on: SNB-19 CNS
OVCAR-5 ovarian = tested on: OVCAR-5 ovarian
UACC-62 melanoma = tested on: UACC-62 melanoma
HCC-2998 colon = tested on: HCC-2998 colon
NCI-H460 lung = tested on: NCI-H460 lung
BT-549 breast = tested on: BT-549 breast

Row | SMILES | TGI (COLO 205 colon) [µM] | TGI (MDA-MB-231 breast) [µM] | TGI (SNB-19 CNS) [µM] | TGI (OVCAR-5 ovarian) [µM] | TGI (UACC-62 melanoma) [µM] | TGI (HCC-2998 colon) [µM] | TGI (NCI-H460 lung) [µM] | TGI (BT-549 breast) [µM]
1 | CCCN=C1NC(C)=CSC(Nc2ccccc2)=C1C#N | > 100 | > 100 | > 100 | > 100 | > 100 | – | – | –
2 | COc1ccc(/C(=N/O)c2ccccc2C2=Nc3ccccc3C(NCc3ccccc3)O2)cc1C (stereo unspecified) | 38.9 | > 100 | > 100 | > 100 | 88.7 | > 100 | > 100 | –
3 | CN(C)C(=O)N1N[C@H](c2ccccc2)[C@@H]1c1ccccc1 | > 100 | > 100 | > 100 | – | > 100 | > 100 | – | –
4 | CC1(C)CCCCCC(O)C(O)CCC(C)(C)C1=O (stereo unspecified) | > 100 | > 100 | > 100 | > 100 | > 100 | – | > 100 | > 100
5 | CCN(CC)/N=C\c1c2ccccc2cc2ccccc12 | 53.5 | > 100 | > 100 | > 100 | > 100 | – | > 100 | > 100
6 | O=C(CSc1nc2ccc(I)cc2c(=O)n1Cc1ccccc1)Nc1ccccc1 | > 100 | > 100 | 62.7 | > 100 | > 100 | – | – | 54.6
7 | O=C1CCCC1CC(CN1CCOCC1)Sc1nnnn1-c1ccccc1 (stereo unspecified) | 33.1 | > 100 | > 100 | > 100 | > 100 | > 100 | – | > 100
8 | COP(=O)(CP(=O)(OC)OCCC(C)CCC=C(C)C)OC (stereo unspecified) | > 100 | 44.7 | > 100 | > 100 | – | > 100 | > 100 | > 100
9 | O=c1c(O)c(-c2ccccc2)oc2c(CP(=O)(O)O)cccc12 | > 100 | > 100 | – | > 100 | > 100 | > 100 | > 100 | > 100
10 | O=S(=O)(O)c1ccc(O)c(N=Nc2c(O)ccc3ccccc23)c1 | > 100 | > 100 | > 100 | > 100 | > 100 | – | – | > 100
11 | COc1cc(C2c3cccc4cccc(c34)C3CCC(=O)N32)cc(OC)c1O (stereo unspecified) | > 50 | – | > 50 | > 50 | > 50 | – | > 50 | > 50
12 | Cc1cn(C2CC(O)C(Cn3nncc3Cn3nc(Br)c(=O)[nH]c3=O)O2)c(=O)[nH]c1=O (stereo unspecified) | > 100 | > 100 | > 100 | > 100 | > 100 | > 100 | – | > 100
13 | CC1CN(c2cc3c(cc2F)c(=O)c(C(=O)O)cn3-c2ccc(N3CCN(C)CC3)cn2)CC(C)N1 (stereo unspecified) | > 100 | > 100 | > 100 | > 100 | > 100 | – | > 100 | > 100
14 | CCCCCCc1ccc(CCCCCCCC(=O)O)o1 | > 100 | – | > 100 | > 100 | – | > 100 | > 100 | > 100
15 | Cc1ccc(/C=c2\c(=O)[nH]c3nc4ccccc4c(=O)n23)cc1 | 42.2 | > 100 | > 100 | > 100 | > 100 | 62.6 | – | 60.3
16 | [N-]=[N+]=Nc1cc(=O)[nH]c2ccccc12 | > 100 | > 100 | > 100 | > 100 | > 100 | – | – | > 100
17 | COC1C(O)C(C)OC(O[C@H]2CC[C@@]3(C)C(CC[C@@H]4[C@@H]3CC[C@]3(C)[C@@H](C(C)OC5OC(CO)C(O)C(O)C5O)CC[C@]43O)C2)C1O (stereo partly specified) | – | > 25 | > 25 | > 25 | > 25 | > 25 | > 25 | –
18 | Cc1nc(N)c(N2CCN(S(=O)(=O)N(Cc3ccccc3)Cc3ccccc3)CC2)c(=O)[nH]1 | 65.9 | > 100 | 74.7 | 73.5 | – | > 100 | > 100 | > 100
19 | COC(=O)N[C@@H]1C[C@H]2CC[C@]1(O[Si](C(C)C)(C(C)C)C(C)C)C(=O)C2 | > 100 | 76.5 | 39.5 | 45.3 | 44.7 | – | > 100 | –
20 | Oc1ccc(-c2nc3cc(C(F)(F)F)ccc3s2)cc1 | 33.1 | 31 | 31.4 | 30.9 | 27.2 | – | 30.1 | 28.5
21 | CC(C)OC1=C(CC2(C)OCCO2)C(=O)C12OCCO2 | > 100 | > 100 | > 100 | > 100 | > 100 | – | > 100 | > 100
